Key:
Test in all cases: 5-HT receptor binding, displacement of tritiated ligands
Details in all cases: at 10 μM
5-HT2A = tested on: 5-HT2A
Experimental: (§1) 5-HT receptor binding was measured using membrane preparations of brain regions known to be enriched with given 5-HT receptor subtype(s). The assay subsequently measured the displacement of tritiated ligands known to bind to a given 5-HT subtype.
(§2) A receptor binding assay was performed for ICI-1259 and ICI-1260 showing that at 10 μM, these compounds bind receptors 5-HT1A(h), 5-HT1B, 5-HT1D(h), 5-HT2A, 5-HT2A(h), 5-HT2B, 5-HT2C, 5-HT3,5-HT3(h), 5-HT4, 5-HT5A(h), 5-HT6, and 5-HT7.

5-HT2B = biological target: T1, 5-HT2B (Homo sapiens, UniProt P41595)
T1 construct: from tissue
Experimental: as §1, §2

5-HT6 = tested on: 5-HT6
Experimental: as §1, §2

5-HT2A(h) = biological target: T2, 5-HT2A(h) (Homo sapiens, UniProt P28223)
T2 construct: from tissue
Experimental: as §1, §2

5-HT5A(h) = biological target: T3, 5-HT5A(h) (Homo sapiens, UniProt P47898)
T3 construct: from tissue
Experimental: as §1, §2

5-HT7 = tested on: 5-HT7
Experimental: as §1, §2

5-HT4 = tested on: 5-HT4
Experimental: as §1, §2

5-HT1A(h) = biological target: T4, 5-HT1A(h) (Homo sapiens, UniProt P08908)
T4 construct: from tissue
T4 sequence (P08908 1-422): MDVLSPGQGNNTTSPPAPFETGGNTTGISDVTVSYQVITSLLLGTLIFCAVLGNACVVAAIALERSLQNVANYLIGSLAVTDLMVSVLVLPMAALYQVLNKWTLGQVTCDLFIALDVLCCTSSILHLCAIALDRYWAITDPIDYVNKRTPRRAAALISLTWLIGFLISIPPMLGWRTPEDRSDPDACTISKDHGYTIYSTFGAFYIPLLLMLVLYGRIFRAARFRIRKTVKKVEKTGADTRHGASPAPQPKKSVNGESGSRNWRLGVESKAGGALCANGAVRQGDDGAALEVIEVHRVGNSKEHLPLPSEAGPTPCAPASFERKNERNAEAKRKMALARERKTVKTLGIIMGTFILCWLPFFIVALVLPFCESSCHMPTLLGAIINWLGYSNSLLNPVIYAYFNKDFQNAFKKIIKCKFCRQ
Experimental: as §1, §2

T2 sequence (P28223 whole entry): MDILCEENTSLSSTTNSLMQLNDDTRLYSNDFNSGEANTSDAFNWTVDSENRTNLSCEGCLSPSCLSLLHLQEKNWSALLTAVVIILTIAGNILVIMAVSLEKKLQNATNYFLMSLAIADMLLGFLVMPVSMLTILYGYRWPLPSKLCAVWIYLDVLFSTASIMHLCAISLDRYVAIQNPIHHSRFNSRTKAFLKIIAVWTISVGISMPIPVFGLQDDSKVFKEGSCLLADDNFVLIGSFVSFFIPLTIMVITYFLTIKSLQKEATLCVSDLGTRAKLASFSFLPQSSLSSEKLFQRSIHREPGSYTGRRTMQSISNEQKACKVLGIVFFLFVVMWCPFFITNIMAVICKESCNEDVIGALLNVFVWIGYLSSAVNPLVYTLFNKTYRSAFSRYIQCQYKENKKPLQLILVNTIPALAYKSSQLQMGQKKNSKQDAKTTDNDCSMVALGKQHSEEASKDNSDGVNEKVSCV
T1 sequence (P41595 whole entry, species assumed): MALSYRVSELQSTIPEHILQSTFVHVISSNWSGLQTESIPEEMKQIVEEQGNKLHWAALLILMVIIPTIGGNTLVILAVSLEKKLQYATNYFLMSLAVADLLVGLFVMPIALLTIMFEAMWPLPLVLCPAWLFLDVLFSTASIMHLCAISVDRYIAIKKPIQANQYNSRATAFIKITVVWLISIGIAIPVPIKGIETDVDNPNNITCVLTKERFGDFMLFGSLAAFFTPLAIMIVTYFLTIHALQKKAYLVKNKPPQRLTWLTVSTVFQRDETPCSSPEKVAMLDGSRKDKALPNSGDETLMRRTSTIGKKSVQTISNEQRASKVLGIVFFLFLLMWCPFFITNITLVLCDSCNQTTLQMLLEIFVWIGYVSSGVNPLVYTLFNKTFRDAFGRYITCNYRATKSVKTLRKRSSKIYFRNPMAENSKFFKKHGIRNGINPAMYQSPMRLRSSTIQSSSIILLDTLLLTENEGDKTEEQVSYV
T3 sequence (P47898 whole entry): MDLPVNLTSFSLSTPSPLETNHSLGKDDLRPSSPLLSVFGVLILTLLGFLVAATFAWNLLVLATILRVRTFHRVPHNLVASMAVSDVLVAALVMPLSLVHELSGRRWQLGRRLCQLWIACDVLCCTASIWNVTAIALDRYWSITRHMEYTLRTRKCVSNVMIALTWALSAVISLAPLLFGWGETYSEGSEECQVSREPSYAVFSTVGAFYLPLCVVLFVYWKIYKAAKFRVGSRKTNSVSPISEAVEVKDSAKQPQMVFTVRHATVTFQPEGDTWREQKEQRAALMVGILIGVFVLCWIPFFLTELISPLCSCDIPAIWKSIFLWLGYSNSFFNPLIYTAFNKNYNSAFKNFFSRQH

receptor binding (5-HT2A)	receptor binding (5-HT2B)	receptor binding (5-HT6)	receptor binding (5-HT2A(h))	receptor binding (5-HT5A(h))	receptor binding (5-HT7)	receptor binding (5-HT4)	receptor binding (5-HT1A(h))	SMILES
bind	bind	bind	bind	bind	bind	bind	bind	CNCC(=O)NCCCN1CCC(CCCN2c3ccccc3Sc3ccc(C(F)(F)F)cc32)CC1 [ICI-1259, 2-(methylamino)-N-(3-(4-(3-(2-(trifluoromethyl)-10H-phenothiazin-10-yl)propyl)piperidin-1-yl)propyl)acetamide]
bind	bind	bind	bind	bind	bind	bind	bind	NCC(=O)NCCCN1CCC(CCCN2c3ccccc3Sc3ccc(C(F)(F)F)cc32)CC1 [ICI-1260, 2-amino-N-(3-(4-(3-(2-(trifluoromethyl)-10H-phenothiazin-10-yl)propyl)piperidin-1-yl)propyl)acetamide]
